Measured values reported in patent publication US20230322789A1, “PYRAZOLOPYRIDAZINONE COMPOUND, AND PHARMACEUTICAL COMPOSITION AND USE THEREOF” (BroadenBio Co., Ltd., priority 2020, published 2023).

Columns and labels:
Human Jurkat-E6-1 cells = experiment: Measurement of IL-2 secretion of Jurkat cells by ELISA; type: cell-based; settings: Homo sapiens, Jurkat E6.1, anti-CD3/anti-CD28 stimulation 24 hours, read-out: Percentage of the amount of IL-2 secreted from compound treated/DMSO-treated cells; for activity at 1 µM: test compound 1.0 μM; for activity at 3 µM: test compound 3.0 μM; for activity at 0.33 µM: test compound 0.33 μM
Protocol: 2. Measurement of IL-2 Secretion of Jurkat Cells by ELISA
Human Jurkat-E6-1 cells were incubated with various concentrations of test compounds for 30 minutes in a humidified incubator at 37° C. and […]. Cells were transferred to cell culture plates pre-coated with anti-human CD3 antibody, then soluble anti-human CD28 antibody was added, and cells were stimulated for 24 hours at 37° C. and 5% CO2 in a humidified incubator. The cell culture medium was collected by centrifugation, and was then transferred to a 96-well transparent microtiter plate (Thermo) pre-coated with anti-human IL-2 antibody, incubated at room temperature for 2 hours, and gently shaken, washed with washing buffer for 4 times, and then followed the ELISA MAX Deluxe Set Human IL-2 (BioLegend) kit procedure, used a microplate reader (Molecular Device, i3X) to read the GD value. The best standard curve was selected by the microplate reader application software, and the corresponding concentration was calculated according to the GD value of the standard. Results are expressed as a percentage of the amount of IL-2 secreted from compound-treated/DMSO-treated cells.

HPK1 = HPK1 (Homo sapiens (Human), UniProt Q92918); experiment: HPK1 kinase activity inhibition test (ADP-Glo, luminescence); type: biochemical; settings: HPK1 5 nM, ATP 2 μM, read-out: IC50, inhibitory effects of compounds on HPK1 kinase activity
Protocol: 1. HPK1 Kinase Activity Inhibition Test
The kinase activity of HPK1 is manifested as activity of autophosphorylation and phosphorylation of downstream substrates. In the process of autophosphorylation, additional substrates are not required, and ATP is consumed to generate ADP. The amount of the product was measured by ADP-Glo reagent and luminescence method to reflect kinase activity.
Test compounds: compounds prepared in the examples of this application.
Prepare compound stock solution: dissolve the compound to be tested in 100% DMSO to make a 10 mM stock solution;
Prepare 4× Kinase Reaction Buffer:
Prepare 2×HPK1 Kinase Solution:
Dilute the stock solution of the compound to be tested by 5 times with […], make a 4-fold equal dilution in a 96-well dilution plate, add 1 μL of the compound to 49 µL of kinase reaction buffer, and shake on a microplate shaker for 20 minutes. Transfer 2 μL of […] kinase solution to 384 reaction plate, add 1 μL of the test compound to the 384 reaction plate (Greiner, 784075), centrifuge for 1 minute (1000 rpm/min), incubate at 25° C. for 10 minutes. Transfer […] of the 4×ATP mixture to a 384 reaction plate, centrifuge for 1 minute (1000 rpm/mm), and incubate at 25° C. for 60 minutes. In the reaction system, the final concentration of DMSO was […]. Transfer 4 μL of ADP-Glo to a 384 reaction plate, centrifuge for 1 minute (1000 rpm/min), and incubate at 25° C. for 40 minutes. Transfer 8 μL detection solution to a 384 reaction plate, centrifuge for 1 minute (1000 rpm/min), and incubate at 25° C. for 40 minutes. The […] signal was read using a Biotek multi-function plate reader, and the […] (half inhibitory concentration) of the compound was obtained using a four-coefficient nonlinear fitting formula.

Chain of HPK1 (Q92918 whole entry): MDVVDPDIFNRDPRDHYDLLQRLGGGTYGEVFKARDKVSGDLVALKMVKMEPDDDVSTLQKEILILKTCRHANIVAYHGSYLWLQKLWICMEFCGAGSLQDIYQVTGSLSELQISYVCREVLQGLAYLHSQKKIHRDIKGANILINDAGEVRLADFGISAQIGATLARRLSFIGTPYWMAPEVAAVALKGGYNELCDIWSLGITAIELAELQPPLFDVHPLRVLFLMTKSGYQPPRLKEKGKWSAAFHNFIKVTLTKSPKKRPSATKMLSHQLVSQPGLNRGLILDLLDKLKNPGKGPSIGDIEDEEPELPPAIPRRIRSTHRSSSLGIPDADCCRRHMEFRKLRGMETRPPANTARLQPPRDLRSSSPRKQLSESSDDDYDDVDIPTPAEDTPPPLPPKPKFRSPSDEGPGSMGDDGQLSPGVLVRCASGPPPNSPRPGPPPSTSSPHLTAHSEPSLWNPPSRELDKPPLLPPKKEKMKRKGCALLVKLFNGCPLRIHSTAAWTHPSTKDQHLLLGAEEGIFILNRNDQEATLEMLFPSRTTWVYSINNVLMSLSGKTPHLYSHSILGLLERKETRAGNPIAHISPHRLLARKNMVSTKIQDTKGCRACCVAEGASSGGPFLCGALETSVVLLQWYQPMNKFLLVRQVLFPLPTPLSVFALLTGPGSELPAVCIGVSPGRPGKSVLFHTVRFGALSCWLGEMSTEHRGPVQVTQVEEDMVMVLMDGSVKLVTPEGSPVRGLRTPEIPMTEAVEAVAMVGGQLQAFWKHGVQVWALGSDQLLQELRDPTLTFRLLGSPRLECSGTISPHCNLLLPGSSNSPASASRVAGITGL

SMILES | activity at 1 µM (Human Jurkat-E6-1 cells) [%] | IC50 (HPK1) [µM] | activity at 3 µM (Human Jurkat-E6-1 cells) [%] | activity at 0.33 µM (Human Jurkat-E6-1 cells) [%]
Cc1cccc(F)c1-n1nc2c(-c3ccc(N4CCN(C)CC4)cc3)n[nH]c2cc1=O [Compound 1, 5-(2-fluoro-6-methylphenyl)-3-(4-(4-methylpiperazin-1-yl)phenyl)-1H-pyrazolo[4,3-c]pyridazin-6(5H)-one] | 277 | ≤ 0.05 |  | 
COc1cccc(C)c1-n1nc2c(-c3ccc(N4CCN(C)CC4)cc3)n[nH]c2cc1=O [Compound 2, 5-(2-methoxy-6-methylphenyl)-3-(4-(4-methylpiperazin-1-yl)phenyl)-1H-pyrazolo[4,3-c]pyridazin-6(5H)-one] |  | 0.05 to 0.5 | 238 | 
COc1ccccc1-n1nc2c(-c3ccc(N4CCN(C)CC4)cc3)n[nH]c2cc1=O [Compound 3, 5-(2-methoxyphenyl)-3-(4-(4-methylpiperazin-1-yl)phenyl)-1H-pyrazolo[4,3-c]pyridazin-6(5H)-one] | 211 | ≤ 0.05 |  | 
Cc1ccccc1-n1nc2c(-c3ccc(N4CCN(C)CC4)cc3)n[nH]c2cc1=O [Compound 5, 5-(2-methylphenyl)-3-(4-(4-methylpiperazin-1-yl)phenyl)-1H-pyrazolo[4,3-c]pyridazin-6(5H)-one] | 162 | 0.05 to 0.5 |  | 
CN1CCN(c2ccc(-c3n[nH]c4cc(=O)n(-c5ccccc5F)nc34)cc2)CC1 [Compound 6, 5-(2-fluorophenyl)-3-(4-(4-methylpiperazin-1-yl)phenyl)-1H-pyrazolo[4,3-c]pyridazin-6(5H)-one] | 185 | ≤ 0.05 |  | 
CN1CCN(c2ccc(-c3n[nH]c4cc(=O)n(-c5ccccc5Cl)nc34)cc2)CC1 [Compound 7, 5-(2-chlorophenyl)-3-(4-(4-methylpiperazin-1-yl)phenyl)-1H-pyrazolo[4,3-c]pyridazin-6(5H)-one] | 314 | 0.05 to 0.5 |  | 
CCc1cccc(F)c1-n1nc2c(-c3ccc(N4CCN(C)CC4)cc3)n[nH]c2cc1=O [Compound 8, 5-(2-ethyl-6-fluorophenyl)-3-(4-(4-methylpiperazin-1-yl)phenyl)-1H-pyrazolo[4,3-c]pyridazin-6(5H)-one] |  | ≤ 0.05 |  | 306
COc1cccc(F)c1-n1nc2c(-c3ccc(N4CCN(C)CC4)cc3)n[nH]c2cc1=O [Compound 9, 5-(2-fluoro-6-methoxyphenyl)-3-(4-(4-methylpiperazin-1-yl)phenyl)-1H-pyrazolo[4,3-c]pyridazin-6(5H)-one] |  | ≤ 0.05 | 188 | 
Cc1cccc(F)c1-n1nc2c(-c3ccc(N4CCN(C)CC4)nc3)n[nH]c2cc1=O [Compound 11, 5-(2-fluoro-6-methylphenyl)-3-(6-(4-methylpiperazin-1-yl)pyrid-3-yl)-1H-pyrazolo[4,3-c]pyridazin-6(5H)-one] | 296 | 0.05 to 0.5 |  | 
Cc1cc(-c2n[nH]c3cc(=O)n(-c4c(C)cccc4F)nc23)cc(C)c1N1CCN(C)CC1 [Compound 13] |  | 0.05 to 0.5 | 315 | 
COc1cc(-c2n[nH]c3cc(=O)n(-c4c(C)cccc4F)nc23)ccc1N1CCN(C)CC1 [Compound 14, 5-(2-fluoro-6-methylphenyl)-3-(3-methoxy-4-(4-methylpiperazin-1-yl)phenyl)-1H-pyrazolo[4,3-c]pyridazin-6(5H)-one] |  | 0.05 to 0.5 | 255 | 
COc1cc(N2CCN(C)CC2)ccc1-c1n[nH]c2cc(=O)n(-c3c(C)cccc3F)nc12 [Compound 16, 5-(2-fluoro-6-methylphenyl)-3-(2-methoxy-4-(4-methylpiperazin-1-yl)phenyl)-1H-pyrazolo[4,3-c]pyridazin-6(5H)-one] | 156 | 0.5 to 2 |  | 
COc1cccc(F)c1-n1nc2c(-c3cnn(C4CCN(C)CC4)c3)n[nH]c2cc1=O [Compound 20] | 329 | 0.05 to 0.5 |  | 
COc1cccc(F)c1-n1nc2c(-c3cnn(C)c3)n[nH]c2cc1=O [Compound 21, 5-(2-fluoro-6-methoxyphenyl)-3-(1-methyl-1H-pyrazol-4-yl)-1H-pyrazolo[4,3-c]pyridazin-6(5H)-one] |  | 0.05 to 0.5 | 258 | 
COc1cccc(F)c1-n1nc2c(-c3ccc(C4=CCN(C)CC4)cc3)n[nH]c2cc1=O [Compound 23, 5-(2-fluoro-6-methoxyphenyl)-3-(4-(1-methyl-1,2,3,6-tetrahydro-pyridin-4-yl)phenyl)-1H-pyrazolo[4,3-c]pyridazin-6(5H)-one] |  | ≤ 0.05 |  | 379
COc1ccc(-n2nc3c(-c4ccc(N5CCN(C)CC5)cc4)n[nH]c3cc2=O)c(OC)c1 [Compound 25, 5-(2,4-dimethoxyphenyl)-3-(4-(4-methylpiperazin-1-yl)phenyl)-1H-pyrazolo[4,3-c]pyridazin-6(5H)-one] | 187 | 0.05 to 0.5 |  | 
COc1cccc(F)c1-n1nc2c(-c3ccc(N4CCOCC4)nc3)n[nH]c2cc1=O [Compound 27, 5-(2-fluoro-6-methoxyphenyl)-3-(6-morpholinopyrid-3-yl)-1H-pyrazolo[4,3-c]pyridazin-6(5H)-one] |  | ≤ 0.05 |  | 302
CCc1cccc(F)c1-n1nc2c(-c3ccc(N4CCN(CC(C)(C)O)CC4)cc3)n[nH]c2cc1=O [Compound 116, 5-(2-ethyl-6-fluorophenyl)-3-(4-(4-(2-hydroxyl-2-methylpropyl)piperazin-1-yl)phenyl)-1H-pyrazolo[4,3-c]pyridazin-6(5H)-one] | 193 |  |  | 
Cc1cccc(F)c1-n1nc2c(-c3ccc(N4CCN5C(=O)OCC5C4)nc3)n[nH]c2cc1=O (stereo not shown) [Compound 129, 7-(5-(5-(2-fluoro-6-methylphenyl)-6-oxo-5,6-dihydro-1H-pyrazolo[4,3-c]pyridazin-3-yl)pyridin-2-yl)tetrahydro-1H-oxazolo[3,4-a]pyrazin-3(5H)-one] |  |  | 807 | 
Cc1cccc(F)c1-n1nc2c(-c3cccc(N4CC5CCC(C4)N5C)c3)n[nH]c2cc1=O [Compound 201, 5-(2-fluoro-6-methylphenyl)-3-(3-(8-methyl-3,8-diazabicyclo[3.2.1]octan-3-yl)phenyl)-1H-pyrazolo[4,3-c]pyridazin-6(5H)-one] |  | ≤ 0.05 |  | 
COc1cc(C#N)cc(F)c1-n1nc2c(-c3cccc(N4CC5CCC(C4)N5C)c3)n[nH]c2cc1=O [Compound 203, 3-fluoro-5-methoxy-4-(3-(3-(8-methyl-3,8-diazabicyclo[3.2.1]octan-3-yl)phenyl)-6-oxo-1H-pyrazolo[4,3-c]pyridazin-5(6H)-yl)benzonitrile] |  | ≤ 0.05 |  | 
COc1cccc(F)c1-n1nc2c(-c3cccc(N4CCC(N)CC4)c3)n[nH]c2cc1=O [Compound 205, 3-(3-(4-aminopiperidin-1-yl)phenyl)-5-(2-fluoro-6-methoxyphenyl)-1H-pyrazolo[4,3-c]pyridazin-6(5H)-one] |  | ≤ 0.05 |  | 
COc1cccc(F)c1-n1nc2c(-c3cccc(N4CCC(O)CC4)c3)n[nH]c2cc1=O [Compound 206, 3-(3-(4-hydroxylpiperidin-1-yl)phenyl)-5-(2-fluoro-6-methoxyphenyl)-1H-pyrazolo[4,3-c]pyridazin-6(5H)-one] |  | 0.05 to 0.5 |  | 
Cc1cccc(F)c1-n1nc2c(-c3cccc(N4CCN(C)CC4)c3F)n[nH]c2cc1=O [Compound 207, 3-(2-fluoro-3-(4-methylpiperazin-1-yl)phenyl)-5-(2-fluoro-6-methylphenyl)-1H-pyrazolo[4,3-c]pyridazin-6(5H)-one] |  | 0.5 to 2 |  | 
Cc1cccc(F)c1-n1nc2c(-c3cc(N4CCN(C)CC4)ccc3F)n[nH]c2cc1=O [Compound 208, 3-(2-fluoro-5-(4-methylpiperazin-1-yl)phenyl)-5-(2-fluoro-6-methylphenyl)-1H-pyrazolo[4,3-c]pyridazin-6(5H)-one] |  | ≤ 0.05 |  | 
COc1cccc(F)c1-n1nc2c(-c3cccc(N4CCN(C)CC4)c3F)n[nH]c2cc1=O [Compound 209, 3-(2-fluoro-3-(4-methylpiperazin-1-yl)phenyl)-5-(2-fluoro-6-methoxyphenyl)-1H-pyrazolo[4,3-c]pyridazin-6(5H)-one] |  | 0.05 to 0.5 |  | 
